Tested on: relapsed or refractory, rituximab-naive or -sensitive follicular B-cell NHL
Experiment: Time to progression (TTP), Vc-R vs rituximab study, by biomarker
Type: in vivo, human
Parameters: TTP Median: unit not given here
Source text: Non-Hodgkin lymphoma (NHL) encompasses several unique malignant lymphoid disease entities that vary in clinical behavior, morphologic appearance, immunologic, and molecular phenotype. […] A randomized, open-label, active-controlled, multicenter, multinational, prospective study to compare the efficacy and safety of the combination of bortezomib and rituximab (Vc-R) to single-agent rituximab in subjects who have relapsed or refractory, rituximab-naive or -sensitive follicular B-cell NHL was performed.
Subjects were centrally randomized to Treatment Groups A (Vc-R) or B (rituximab) in a 1:1 ratio taking into account the following stratification factors: • Follicular Lymphoma International Prognostic Index (FLIPI) score (low [0 or 1 factor], intermediate [2 factors], high [≧3 factors]); • Prior rituximab therapy (yes, no); • Time since last dose of anti-lymphoma therapy (≦1 year, >1 year); • Region (United States/Canada, European Union, Rest of World).
For single-marker association analyses and pair-wise comparisons, a log rank test and Cox proportional hazard model was utilized for assessments of PFS, TTP, and OS between the treatment groups. Kaplan-Meier curves were utilized to estimate the distribution differences between groups in the time-to-event analyses. Comparison of the response rates between the treatment groups was conducted using the Fishers exact test. Single-marker association analyses were stratified by the covariates.
For pair-wise comparison analysis, biomarker pairs were formed by combinations of two markers. A log rank test was utilized for assessments of PFS, TTP, and OS between the treatment groups in the subpopulation defined by biomarker pairs. Kaplan-Meier curves were utilized to estimate the distribution differences between groups in the time-to-event analyses. Comparison of the response rates between the treatment groups was conducted using the Fishers exact test. Methods of Analysis for the multiple biomarker comparison models can be found in section 4.6.

[1] = PSMB1/I208N: T/T, Ann Arbor Stage IV, IRC review
[2] = PSMB1/I208N: T/T, High Tumor Burden, IRC review
[3] = PSMB1/I208N: T/T, ≦65 years old, IRC review
[4] = PSMB1/P11A: C/G, Ann Arbor Stage IV, IRC review
[5] = PSMB1/P11A: C/G, High Tumor Burden, IRC review
[6] = PSMB1/P11A: C/G, ≦65 years old, IRC review
[7] = PSMB1/P193L: C/C, Ann Arbor Stage IV, IRC review
[8] = PSMB1/P193L: C/C, High Tumor Burden, IRC review
[9] = PSMB1/P193L: C/C, ≦65 years old, IRC review
[10] = PSMB2/E49X: G/G, Ann Arbor Stage IV, IRC review
[11] = PSMB2/E49X: G/G, High Tumor Burden, IRC review
[12] = PSMB2/E49X: G/G, ≦65 years old, IRC review
[13] = PSMB2/G187V: G/G, Ann Arbor Stage IV, IRC review
[14] = PSMB2/G187V: G/G, High Tumor Burden, IRC review
[15] = PSMB2/G187V: G/G, ≦65 years old, IRC review
[16] = PSMB2/L159F: C/C, Ann Arbor Stage IV, IRC review
[17] = PSMB2/L159F: C/C, High Tumor Burden, IRC review
[18] = PSMB2/L159F: C/C, ≦65 years old, IRC review
[19] = PSMB5/L206M: C/C, Ann Arbor Stage IV, IRC review
[20] = PSMB5/L206M: C/C, High Tumor Burden, IRC review
[21] = PSMB5/L206M: C/C, ≦65 years old, IRC review
[22] = PSMB5/R24C: C/C, ≦65 years old, IRC review
[23] = PSMB5/R24C: C/T, 2 Prior Lines of Therapy, IRC review
[24] = PSMB5/R24C: C/T, High Tumor Burden, IRC review
[25] = PSMB6/A234D: C/C, Ann Arbor Stage IV, IRC review
[26] = PSMB6/A234D: C/C, High Tumor Burden, IRC review
[27] = PSMB6/A234D: C/C, ≦65 years old, IRC review
[28] = PSMB6/P107A: C/C, Ann Arbor Stage IV, IRC review
[29] = PSMB6/P107A: C/C, ≦65 years old, IRC review
[30] = PSMB8/G8R: G/G, Ann Arbor Stage IV, IRC review
[31] = PSMB8/G8R: G/G, High Tumor Burden, IRC review
[32] = PSMB8/G8R: G/G, ≦65 years old, IRC review
[33] = PSMB8/R141C: C/C, Ann Arbor Stage IV, IRC review
[34] = PSMB8/R141C: C/C, High Tumor Burden, IRC review
[35] = PSMB8/R141C: C/C, ≦65 years old, IRC review
[36] = PSMB8/V182M: G/G, >1 year since last anti-lymphoma treatment, IRC review
[37] = PSMB8/V182M: G/G, Ann Arbor Stage IV, IRC review
[38] = PSMB8/V182M: G/G, High Tumor Burden, IRC review
[39] = PSMB8/V182M: G/G, ≦65 years old, IRC review
[40] = PSMB9/G9E: G/G, >1 year since last anti-lymphoma treatment, IRC review
[41] = PSMB9/G9E: G/G, Ann Arbor Stage IV, IRC review
[42] = PSMB9/G9E: G/G, High Tumor Burden, IRC review
[43] = PSMB9/G9E: G/G, ≦65 years old, IRC review
[44] = PSMB9/R60H: A/G, Male, IRC review
[45] = PSMB9/R60H: G/G, ≦65 years old, IRC review
[46] = PSMB9/V32I: C/C, >1 year since last anti-lymphoma treatment, IRC review
[47] = PSMB9/V32I: C/C, Ann Arbor Stage IV, IRC review
[48] = PSMB9/V32I: C/C, No Subgroup, IRC review
[49] = PSMB9/V32I: C/C, ≦65 years old, IRC review

rituximab
TTP Median (PSMB1/A171S: G/G, ≦65 years old, IRC review): 326
TTP Evt/N [1]: 95/127
TTP Median [1]: 278
TTP Evt/N [2]: 110/147
TTP Median [2]: 273
TTP Evt/N [3]: 131/198
TTP Median [3]: 326
TTP Evt/N [4]: 46/59
TTP Median [4]: 235
TTP Evt/N [5]: 52/72
TTP Median [5]: 253
TTP Evt/N [6]: 62/96
TTP Median [6]: 288
TTP Evt/N [7]: 95/127
TTP Median [7]: 278
TTP Evt/N [8]: 110/147
TTP Median [8]: 273
TTP Evt/N [9]: 131/198
TTP Median [9]: 326
TTP Evt/N [10]: 95/127
TTP Median [10]: 278
TTP Evt/N [11]: 110/147
TTP Median [11]: 273
TTP Evt/N [12]: 131/198
TTP Median [12]: 326
TTP Evt/N [13]: 95/127
TTP Median [13]: 278
TTP Evt/N [14]: 110/147
TTP Median [14]: 273
TTP Evt/N [15]: 131/198
TTP Median [15]: 326
TTP Evt/N [16]: 95/127
TTP Median [16]: 278
TTP Evt/N [17]: 110/147
TTP Median [17]: 273
TTP Evt/N [18]: 131/198
TTP Median [18]: 326
TTP Evt/N [19]: 95/127
TTP Median [19]: 278
TTP Evt/N [20]: 110/147
TTP Median [20]: 273
TTP Evt/N [21]: 131/198
TTP Median [21]: 326
TTP Evt/N [22]: 115/170
TTP Median [22]: 334
TTP Evt/N [23]: 8/10
TTP Median [23]: 280
TTP Evt/N [24]: 17/21
TTP Median [24]: 275
TTP Evt/N [25]: 95/127
TTP Median [25]: 278
TTP Evt/N [26]: 110/147
TTP Median [26]: 273
TTP Evt/N [27]: 131/198
TTP Median [27]: 326
TTP Evt/N [28]: 92/124
TTP Median [28]: 279
TTP Evt/N [29]: 126/189
TTP Median [29]: 330
TTP Evt/N [30]: 88/120
TTP Median [30]: 279
TTP Evt/N [31]: 104/140
TTP Median [31]: 271
TTP Evt/N [32]: 124/189
TTP Median [32]: 330
TTP Evt/N [33]: 95/127
TTP Median [33]: 278
TTP Evt/N [34]: 110/147
TTP Median [34]: 273
TTP Evt/N [35]: 131/198
TTP Median [35]: 326
TTP Evt/N [36]: 104/165
TTP Median [36]: 381
TTP Evt/N [37]: 95/127
TTP Median [37]: 278
TTP Evt/N [38]: 110/147
TTP Median [38]: 273
TTP Evt/N [39]: 131/198
TTP Median [39]: 326
TTP Evt/N [40]: 104/163
TTP Median [40]: 381
TTP Evt/N [41]: 95/126
TTP Median [41]: 278
TTP Evt/N [42]: 110/145
TTP Median [42]: 271
TTP Evt/N [43]: 131/196
TTP Median [43]: 326
TTP Evt/N [44]: 22/28
TTP Median [44]: 273
TTP Evt/N [45]: 79/119
TTP Median [45]: 330
TTP Evt/N [46]: 102/160
TTP Median [46]: 379
TTP Evt/N [47]: 93/123
TTP Median [47]: 277
TTP Median (PSMB9/V32I: C/C, High Tumor Burden, IRC Review): 273
TTP Evt/N [48]: 177/266
TTP Median [48]: 345
TTP Evt/N [49]: 129/192
TTP Median [49]: 326

From patent US9322066B2, “Predictors for cancer treatment” (priority 2011, dated 2016)
